# Source: patent US11702409B2, “Pyrazolyl derivatives useful as anti-cancer agents” (NOVARTIS AG, priority 2019, dated 2023)
# Target: KRasG12C (M1-K169, biotinylated on the N-terminus) (Homo sapiens (Human), UniProt P01116, G12C)
# Assay: Covalent competition assay (scintillation proximity assay, competition with radiolabeled covalent probe Compound B)
# Format: binding
# Details: in vitro KRASG12C activity; 10 nM KRasG12C:GDP, 25 nM radio-ligand and 475 nM unlabelled ligand, incubated 2 hours; read-out: Covalent Competition Assay IC50
# Description: The cells were lysed by 4 passages through an Avestin Emulsiflex at about 20000 psi and insoluble debris removed by centrifugation and filtered through a 0.45 μm Durapore membrane (Millipore). […] The protein in the flow through was subjected to a final polishing step on a HiLoad 16/60 Superdex 200 prep grade size-exclusion column pre-equilibrated with SEC-buffer (20 mM HEPES pH 7.4, 150 mM NaCl, 5 mM MgCl2, 1 μM GDP).
# A scintillation proximity assay (SPA) was used to determine the potency of the compounds. This assay measures the ability of the test compound to compete with the radiolabeled covalent probe for binding to and covalently modify KRASG12C.
# A serial dilution of the compounds to be tested is mixed with a fixed concentration of the radiolabeled covalent probe before incubation with KRASG12C:GDP as described below.
# The reaction was started by addition of KRasG12C (M1-K169, biotinylated on the N-terminus) to the compounds and incubated for 2 hours with continuous agitation allowing for full modification of KRasG12C with probe or test compounds. […] The assay buffer contained 20 mM Tris-HCl pH 7.5 (Invitrogen), 150 mM NaCl (Sigma Aldrich), 0.1 mM MgCl2 (Sigma Aldrich), and 0.01% Tween-20 (Sigma Aldrich).
# Evaluation was carried out using assay data analysis software (such as the standard Novartis in-house Helios software application, Novartis Institutes for BioMedical Research, unpublished) using the methods described in Formenko et al., Robust Regression for high-throughput screening.
# Evaluation can also be carried out using commercially available software which is designed to derive IC50 values using 4-parameter fits (e.g. GraphPad Prism, XL fit).
row,IC50 [nM],Compound
1,> 50000,"C=CC(=O)N1CC2(CC(n3nc(-c4ccccn4)c(-c4c(Cl)c(C)cc5[nH]ncc45)c3C)C2)C1 (single isomer, unassigned) [Example 46b, 1-(6-(4-(5-chloro-6-methyl-1H-indazol-4-yl)-5-methyl-3-(pyridin-2-yl)-1H-pyrazol-1-yl)-2-azaspiro[3.3]heptan-2-yl)prop-2-en-1-one]"
2,43,"C=CC(=O)N1CC2(CC(n3nc(-c4ccc(CO)cc4)c(-c4c(Cl)c(C)cc5[nH]ncc45)c3C)C2)C1 (single isomer, unassigned) [Example 47a, 1-(6-{(4M)-4-(5-Chloro-6-methyl-1H-indazol-4-yl)-3-[4-(hydroxymethyl)phenyl]-5-methyl-1H-pyrazol-1-yl}-2-azaspiro[3.3]heptan-2-yl)prop-2-en-1-one]"
3,5380,"C=CC(=O)N1CC2(CC(n3nc(-c4ccncc4C)c(-c4c(Cl)c(C)cc5[nH]ncc45)c3C)C2)C1 (single isomer, unassigned) [Example 49b, 1-(6-(4-(5-chloro-6-methyl-1H-indazol-4-yl)-5-methyl-3-(3-methylpyridin-4-yl)-1H-pyrazol-1-yl)-2-azaspiro[3.3]heptan-2-yl)prop-2-en-1-one]"
4,4240,"C=CC(=O)N1CC2(CC(n3nc(-c4ccc(N5CCS(=O)(=O)CC5)cc4)c(-c4c(Cl)c(C)cc5[nH]ncc45)c3C)C2)C1 (single isomer, unassigned) [Example 50b, 1-(6-(4-(5-chloro-6-methyl-1H-indazol-4-yl)-3-(4-(1,1-dioxidothiomorpholino)phenyl)-5-methyl-1H-pyrazol-1-yl)-2-azaspiro[3.3]heptan-2-yl)prop-2-en-1-one]"
5,465,"C=CC(=O)N1CC2(CC(n3nc(-c4cscn4)c(-c4c(Cl)c(C)cc5[nH]ncc45)c3C)C2)C1 (single isomer, unassigned) [Example 51a, 1-(6-(4-(5-chloro-6-methyl-1H-indazol-4-yl)-5-methyl-3-(thiazol-4-yl)-1H-pyrazol-1-yl)-2-azaspiro[3.3]heptan-2-yl)prop-2-en-1-one]"
6,360,"C=CC(=O)N1CC2(CC(n3nc(-c4ccc5c(c4)C(=O)OC5)c(-c4c(Cl)c(C)cc5[nH]ncc45)c3C)C2)C1 (single isomer, unassigned) [Example 54a]"
7,> 50000,"C=CC(=O)N1CC2(CC(n3nc(-c4ccc5c(c4)C(=O)OC5)c(-c4c(Cl)c(C)cc5[nH]ncc45)c3C)C2)C1 (single isomer, unassigned) [Example 54b]"
8,64,"C=CC(=O)N1CC2(CC(n3nc(-c4ccc(O)cc4F)c(-c4c(Cl)c(C)cc5[nH]ncc45)c3C)C2)C1 (single isomer, unassigned) [Example 58a]"
9,173,"C=CC(=O)N1CC2(CC(n3nc(-c4cc5ccncc5[nH]4)c(-c4c(Cl)c(C)cc5[nH]ncc45)c3C)C2)C1 (single isomer, unassigned) [Example 59a, 1-(6-(4-(5-chloro-6-methyl-1H-indazol-4-yl)-5-methyl-3-(1H-pyrrolo[2,3-c]pyridin-2-yl)-1H-pyrazol-1-yl)-2-azaspiro[3.3]heptan-2-yl)prop-2-en-1-one]"
10,51,"C=CC(=O)N1CC2(CC(n3nc(-c4ccc(OCCOC)cc4F)c(-c4c(Cl)c(C)cc5[nH]ncc45)c3C)C2)C1 (single isomer, unassigned) [Example 60a, 1-(6-{(4M)-4-(5-Chloro-6-methyl-1H-indazol-4-yl)-3-[2-fluoro-4-(2-methoxyethoxy)phenyl]-5-methyl-1H-pryazol-1-yl}-2-azaspiro[3.3]heptan-2-yl)prop2-en-1-one]"
11,27,"C=CC(=O)N1CC2(CC(n3nc(-c4ccc(NCCOC)cc4F)c(-c4c(Cl)c(C)cc5[nH]ncc45)c3C)C2)C1 (single isomer, unassigned) [Example 61a, 1-(6-(4-(5-chloro-6-methyl-1H-indazol-4-yl)-3-(2-fluoro-4-((2-methoxyethyl)amino)phenyl)-5-methyl-1H-pyrazol-1-yl)-2-azaspiro[3.3]heptan-2-yl)prop-2-en-1-one]"
12,33800,"C=CC(=O)N1CC2(CC(n3nc(-c4ccc(C(=O)NCCOC)c(F)c4)c(-c4c(Cl)c(C)cc5[nH]ncc45)c3C)C2)C1 (single isomer, unassigned) [Example 63b]"

# Second part, the compound before the results:
row,Compound,IC50 [nM]
1,"C=CC(=O)N1CC2(CC(n3nc(-c4ccc(CO)cc4)c(-c4c(Cl)c(C)cc5[nH]ncc45)c3C)C2)C1 (single isomer, unassigned) [Example 47b, 1-(6-(4-(5-chloro-6-methyl-1H-indazol-4-yl)-3-(4-(hydroxymethyl)phenyl)-5-methyl-1H-pyrazol-1-yl)-2-azaspiro[3.3]heptan-2-yl)prop-2-en-1-one]",23400
2,"C=CC(=O)N1CC2(CC(n3nc(-c4ccncc4C)c(-c4c(Cl)c(C)cc5[nH]ncc45)c3C)C2)C1 (single isomer, unassigned) [Example 49a, 1-(6-(4-(5-chloro-6-methyl-1H-indazol-4-yl)-5-methyl-3-(3-methylpyridin-4-yl)-1H-pyrazol-1-yl)-2-azaspiro[3.3]heptan-2-yl)prop-2-en-1-one]",227
3,"C=CC(=O)N1CC2(CC(n3nc(-c4ccc(N5CCS(=O)(=O)CC5)cc4)c(-c4c(Cl)c(C)cc5[nH]ncc45)c3C)C2)C1 (single isomer, unassigned) [Example 50a, 1-(6-(4-(5-chloro-6-methyl-1H-indazol-4-yl)-3-(4-(1,1-dioxidothiomorpholino)phenyl)-5-methyl-1H-pyrazol-1-yl)-2-azaspiro[3.3]heptan-2-yl)prop-2-en-1-one]",35
4,"C=CC(=O)N1CC2(CC(n3nc(-c4cscn4)c(-c4c(Cl)c(C)cc5[nH]ncc45)c3C)C2)C1 (single isomer, unassigned) [Example 51b, 1-(6-(4-(5-chloro-6-methyl-1H-indazol-4-yl)-5-methyl-3-(thiazol-4-yl)-1H-pyrazol-1-yl)-2-azaspiro[3.3]heptan-2-yl)prop-2-en-1-one]",36100
5,"C=CC(=O)N1CC2(CC(n3nc(-c4ccc(O)cc4)c(-c4c(Cl)c(C)cc5[nH]ncc45)c3C)C2)C1 (single isomer, unassigned) [Example 57a]",33
6,"C=CC(=O)N1CC2(CC(n3nc(-c4ccc(O)cc4)c(-c4c(Cl)c(C)cc5[nH]ncc45)c3C)C2)C1 (single isomer, unassigned) [Example 57b]",3200
7,"C=CC(=O)N1CC2(CC(n3nc(-c4ccc(O)cc4F)c(-c4c(Cl)c(C)cc5[nH]ncc45)c3C)C2)C1 (single isomer, unassigned) [Example 58b]",> 5000
8,"C=CC(=O)N1CC2(CC(n3nc(-c4cc5ccncc5[nH]4)c(-c4c(Cl)c(C)cc5[nH]ncc45)c3C)C2)C1 (single isomer, unassigned) [Example 59b, 1-(6-(4-(5-chloro-6-methyl-1H-indazol-4-yl)-5-methyl-3-(1H-pyrrolo[2,3-c]pyridin-2-yl)-1H-pyrazol-1-yl)-2-azaspiro[3.3]heptan-2-yl)prop-2-en-1-one]",> 50000
9,"C=CC(=O)N1CC2(CC(n3nc(-c4ccc(OCCOC)cc4F)c(-c4c(Cl)c(C)cc5[nH]ncc45)c3C)C2)C1 (single isomer, unassigned) [Example 60b, 1-(6-(4-(5-chloro-6-methyl-1H-indazol-4-yl)-3-(2-fluoro-4-(2-methoxyethoxy)phenyl)-5-methyl-1H-pyrazol-1-yl)-2-azaspiro[3.3]heptan-2-yl)prop-2-en-1-one]",> 5000
10,"C=CC(=O)N1CC2(CC(n3nc(-c4ccc(NCCOC)cc4F)c(-c4c(Cl)c(C)cc5[nH]ncc45)c3C)C2)C1 (single isomer, unassigned) [Example 61b, 1-(6-(4-(5-chloro-6-methyl-1H-indazol-4-yl)-3-(2-fluoro-4-((2-methoxyethyl)amino)phenyl)-5-methyl-1H-pyrazol-1-yl)-2-azaspiro[3.3]heptan-2-yl)prop-2-en-1-one]",> 5000
11,"C=CC(=O)N1CC2(CC(n3nc(-c4ccc(C(=O)NCCOC)cc4)c(-c4c(Cl)c(C)cc5[nH]ncc45)c3C)C2)C1 (single isomer, unassigned) [Example 62a, 4-(1-(2-acryloyl-2-azaspiro[3.3]heptan-6-yl)-4-(5-chloro-6-methyl-1H-indazol-4-yl)-5-methyl-1H-pyrazol-3-yl)-N-(2-methoxyethyl)benzamide]",45
12,"C=CC(=O)N1CC2(CC(n3nc(-c4ccc(C(=O)NCCOC)cc4)c(-c4c(Cl)c(C)cc5[nH]ncc45)c3C)C2)C1 (single isomer, unassigned) [Example 62b, 4-(1-(2-acryloyl-2-azaspiro[3.3]heptan-6-yl)-4-(5-chloro-6-methyl-1H-indazol-4-yl)-5-methyl-1H-pyrazol-3-yl)-N-(2-methoxyethyl)benzamide]",19300
13,"C=CC(=O)N1CC2(CC(n3nc(-c4ccc(C(=O)NCCOC)c(F)c4)c(-c4c(Cl)c(C)cc5[nH]ncc45)c3C)C2)C1 (single isomer, unassigned) [Example 63a]",88
14,"C=CC(=O)N1CC2(CC(n3nc(-c4ccc(C(=O)NCCOC)nc4)c(-c4c(Cl)c(C)cc5[nH]ncc45)c3C)C2)C1 (single isomer, unassigned) [Example 64a]",55
